Experimental data published in patent US20250353852A1, “COMPOUNDS AND COMPOSITIONS THAT INHIBIT PIKFYVE” (Kineta, Inc., priority 2021, published 2025).

Assays:
[1] = tested on: FAB1 TDP-43 yeast strain; assay: Propidium iodide viability assay, FAB1 TDP-43 control yeast strain; type: cell-based; conditions: for FAB1 TDP-43 (active/inactive): FAB1 TDP-43 yeast model
Protocol: (§1) Generation of TDP-43 yeast model expressing human PIKfyve. Human PIKFYVE (“entry clone”) was cloned into […] (“destination vector”) according to standard Gateway cloning protocols (Invitrogen, Life Technologies). The resulting pAG416GPD-PIKFYVE plasmids were amplified in E. coli and plasmid identity confirmed by restriction digest and Sanger sequencing. […]+) (FIG. 2). Transformed yeast were plated on solid agar plates with complete synthetic media lacking uracil (CSM-ura) and containing 2% glucose. Individual colonies harboring the control or PIKFYVE TDP-43 plasmids were recovered. A plasmid containing wild-type TDP-43 under the transcriptional control of the GAL1 promoter and containing the […] as a selectable marker was transformed into the […]-PIKFYVE yeast strain (FIG. 1). Transformed yeast were plated on CSM-ura containing 2% glucose and 200 μg/mL G418 after overnight recovery in media lacking antibiotic. Multiple independent isolates were further evaluated for cytotoxicity and TDP-43 expression levels. Viability Assay. A control yeast strain with the wild-type yeast FAB1 gene and TDP-43 (“FAB1 TDP-43”, carries empty pAG416 plasmid), and the “PIKFYVE TDP-43” yeast strain, were assessed for toxicity using a propidium iodide viability assay. Both yeast strains were transferred from solid CSM-ura/2% glucose agar plates into 3 mL of liquid CSM-ura/2% glucose media for 6-8 hours at 30° C. with aeration. Yeast cultures were then diluted to an optical density at 600 nm wavelength (OD600) of 0.005 in 3 mL of CSM-ura/2% raffinose and grown overnight at 30° C. with aeration to an OD600 of 0.3-0.8. Log-phase overnight cultures were diluted to OD600 of 0.005 in CSM-ura containing either 2% raffinose or galactose and 150 μL dispensed into each well of a flat bottom 96-well plates. Compounds formulated in 100% dimethyl sulfoxide (DMSO) were serially diluted in DMSO and 1.5 μL diluted compound transferred to the 96-well plates using a multichannel pipet. Wells containing DMSO alone were also evaluated as controls for compound effects. Tested concentrations ranged from 15 μM to 0.11 μM. Cultures were immediately mixed to ensure compound distribution and covered plates incubated at 30° C. for 24 hours in a stationary, humified incubator. Upon the completion of incubation, cultures were assayed for viability using propidium iodide (PI) to stain for dead/dying cells. A working solution of PI was made where, for each plate, 1 μL of 10 mM PI was added to 10 mL of CSM-ura (raffinose or galactose). […] The overnight 96-well assay plate was then mixed with a multichannel pipet and 50 μL transferred to the PI-containing plate. This plate was then incubated for 30 minutes at 30° C. in the dark. A benchtop flow cytometer (Miltenyi MACSquant) was then used to assess red fluorescence (B2 channel), forward scatter, and side scatter (with following settings: gentle mix, high flow rate, fast measurement, 10,000 events). Intensity histograms were then gated for “PI-positive” or “PI-negative” using the raffinose and galactose cultures treated with DMSO as controls. The DMSO controls for raffinose or galactose-containing cultures were used to determine the window of increased cell death and this difference set to 100. All compounds were similarly gated and then compared to this maximal window to establish the percent reduction in PI-positive cells.

[2] = tested on: PIKFYVE TDP-43 yeast strain; assay: Propidium iodide viability assay, PIKFYVE TDP-43 yeast strain; type: cell-based; conditions: for PIKfyve TDP-43 (active/inactive): PIKFYVE TDP-43 yeast model
Protocol: as §1

[3] = biological target: full-length human PIKFYVE (Homo sapiens (Human), UniProt Q9Y2I7, L932S/Q1183K/Q995L/S1033A/S696N/T998S); assay: PIKfyve biochemical assay (ADP-Glo Kinase assay, Carna Biosciences); conditions: class symbols
Summary of the method: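 N-terminal GST-fused full-length PIKFYVE from baculovirus, incubated with compound, substrate and ATP in 50 mM MOPS, 1 mM DTT, pH7.2 for 1 hour at room temperature. ADP formed detected by ADP-Glo luminescence; IC50 from four-parameter logistic fit of % inhibition.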

[4] = tested on: U2OS cells; assay: EEA1 assay (endosomal vesicle enlargement as surrogate readout of PIKFyve inhibition); type: cell-based; conditions: Homo sapiens, 3 hours of treatment
Protocol: EEA1 Assay. Genetic or pharmacological disruption of PIKfyve activity results in enlargement of endosomal vesicles. This enlargement was utilized as a surrogate readout of PIKFyve inhibition for routine triage of PIKfyve inhibitors. U2OS cells grown in 96-well assay plates were treated with compound diluted in DMEM media containing 10% fetal bovine serum. After 3 hours of treatment, cells were fixed with paraformaldehyde, permeabilized with 0.2% Triton-X in phosphate buffered saline and stained against EEA1. During the secondary antibody staining, cells were also stained with CellMask DeepRed and Hoechst to detect cytoplasms and nuclei respectively. Endosomal structures were visualized using a high content imager at 40× magnification. Images were analyzed using a linear classifier algorithm integrating EEA1 spot size, intensity and texture trained on images of cells treated with the potent reference compound APY0201. Compound activity was calculated by subtracting the DMSO signal and calculating percentage activity relative to maximal APY0201 activity. IC50s were then calculated from concentration vs. % inhibition data by logistic regression.

Chain of full-length human PIKFYVE (Q9Y2I7 whole entry S696N/L932S/Q995L/T998S/S1033A/Q1183K, the tested form may be a part): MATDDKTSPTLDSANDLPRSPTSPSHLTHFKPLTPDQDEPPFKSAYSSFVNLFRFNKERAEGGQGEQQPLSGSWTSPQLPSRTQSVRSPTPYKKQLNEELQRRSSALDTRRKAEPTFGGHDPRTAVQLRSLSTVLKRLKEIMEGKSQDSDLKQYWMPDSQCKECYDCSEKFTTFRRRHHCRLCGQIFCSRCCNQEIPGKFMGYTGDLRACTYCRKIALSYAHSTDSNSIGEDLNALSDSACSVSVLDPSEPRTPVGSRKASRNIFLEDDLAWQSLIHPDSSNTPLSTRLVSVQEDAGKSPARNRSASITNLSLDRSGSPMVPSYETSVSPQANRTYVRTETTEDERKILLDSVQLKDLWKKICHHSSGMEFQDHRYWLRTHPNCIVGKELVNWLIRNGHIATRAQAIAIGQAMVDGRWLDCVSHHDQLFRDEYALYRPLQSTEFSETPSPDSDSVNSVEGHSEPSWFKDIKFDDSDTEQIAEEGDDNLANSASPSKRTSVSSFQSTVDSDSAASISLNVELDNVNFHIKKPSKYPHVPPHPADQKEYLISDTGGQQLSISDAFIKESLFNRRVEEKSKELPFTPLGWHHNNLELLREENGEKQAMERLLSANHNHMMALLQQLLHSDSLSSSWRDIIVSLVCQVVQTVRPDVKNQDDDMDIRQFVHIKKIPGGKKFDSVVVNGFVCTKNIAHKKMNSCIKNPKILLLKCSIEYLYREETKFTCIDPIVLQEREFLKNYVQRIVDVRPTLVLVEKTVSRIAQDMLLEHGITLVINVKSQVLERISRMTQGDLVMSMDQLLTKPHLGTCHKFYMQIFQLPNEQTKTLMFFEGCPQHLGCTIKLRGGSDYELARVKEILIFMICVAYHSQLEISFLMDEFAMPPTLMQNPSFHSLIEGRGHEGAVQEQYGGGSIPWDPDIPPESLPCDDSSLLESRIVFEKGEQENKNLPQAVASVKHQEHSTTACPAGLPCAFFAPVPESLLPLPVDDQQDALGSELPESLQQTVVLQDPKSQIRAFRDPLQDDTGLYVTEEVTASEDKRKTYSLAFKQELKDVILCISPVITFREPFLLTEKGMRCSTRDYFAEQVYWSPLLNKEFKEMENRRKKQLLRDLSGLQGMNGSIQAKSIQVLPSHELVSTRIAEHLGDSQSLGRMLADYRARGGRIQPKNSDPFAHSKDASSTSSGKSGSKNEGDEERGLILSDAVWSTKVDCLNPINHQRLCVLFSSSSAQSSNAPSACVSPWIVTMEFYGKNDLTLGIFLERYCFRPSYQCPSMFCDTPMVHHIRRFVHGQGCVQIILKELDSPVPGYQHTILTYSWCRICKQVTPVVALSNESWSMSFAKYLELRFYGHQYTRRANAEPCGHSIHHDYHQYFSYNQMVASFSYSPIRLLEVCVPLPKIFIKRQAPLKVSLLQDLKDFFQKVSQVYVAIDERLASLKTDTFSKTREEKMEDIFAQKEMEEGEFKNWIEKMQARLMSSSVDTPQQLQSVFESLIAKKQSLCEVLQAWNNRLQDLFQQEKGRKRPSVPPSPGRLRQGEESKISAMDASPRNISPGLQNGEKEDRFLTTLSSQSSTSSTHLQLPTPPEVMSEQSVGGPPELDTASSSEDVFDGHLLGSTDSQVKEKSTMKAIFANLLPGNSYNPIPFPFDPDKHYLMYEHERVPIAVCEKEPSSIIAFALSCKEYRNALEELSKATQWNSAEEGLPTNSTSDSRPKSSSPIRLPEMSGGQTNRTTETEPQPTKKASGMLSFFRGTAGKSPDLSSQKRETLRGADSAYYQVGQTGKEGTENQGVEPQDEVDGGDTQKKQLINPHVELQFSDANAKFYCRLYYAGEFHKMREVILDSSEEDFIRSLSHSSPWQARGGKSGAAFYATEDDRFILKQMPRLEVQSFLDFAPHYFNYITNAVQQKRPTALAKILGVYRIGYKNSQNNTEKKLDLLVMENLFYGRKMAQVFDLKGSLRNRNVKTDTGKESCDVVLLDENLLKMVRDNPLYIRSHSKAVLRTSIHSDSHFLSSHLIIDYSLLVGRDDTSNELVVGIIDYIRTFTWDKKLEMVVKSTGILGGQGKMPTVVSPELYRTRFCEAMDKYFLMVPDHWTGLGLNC

| Structure (SMILES) | FAB1 TDP-43 (active/inactive) [1] | PIKfyve TDP-43 (active/inactive) [2] | IC50 [3] [µM] | IC50 ([4]; class symbols) [µM] | further results |
| --- | --- | --- | --- | --- | --- |
| Cc1cccc(/C=N/Nc2cc(N3CCOCC3)n3nc(-c4ccncc4)cc3n2)c1 [APYO201, reference compound] | – | – | – | – | viable cells in FAB1 TDP-43 ([1]; across a range of compound concentrations (only 0.23 μM is shown), FIG. 5): no increase in viable cells; population of propidium iodide-positive dead cells in PIKFYVE TDP-43 ([2]; 0.23 μM, FIG. 6): reduced the population of propidium iodide-positive dead cells |
| Cn1c(-c2ccncc2)nc2c(N3CCOCC3)ncnc21 | Inactive | Inactive | – | – | – |
| N#Cc1cc(N2CCOCC2)n2nc(-c3ccncc3)cc2n1 [drawing 332] | Inactive | Inactive | – | – | – |
| Cc1cccc(/C=N/Nc2cc(N3CC4CC3CO4)n3nc(-c4ccncc4)cc3n2)c1 (centres unmarked) [drawing 328] | Inactive | Active | – | – | – |
| Cc1cccc(/C=N/Nc2cc(N3CCOCC3)n3nc(-c4ccncc4)cc3n2)c1 [drawing 327] | Inactive | Active | – | – | – |
| COc1cccc(-c2ccn(-c3cc(N4CCOCC4)n4nc(-c5ccncc5)cc4n3)n2)c1 [Compound 71, 4-(5-(3-(3-methoxyphenyl)-1H-pyrazol-1-yl)-2-(pyridin-4-yl)pyrazolo[1,5-a]pyrimidin-7-yl)morpholine] | – | – | 0.01 to 0.1 | 0.1 to 1 | – |
| Cn1ccc(-c2cccc(-c3cc(N4CCOCC4)n4nc(-c5ccncc5)cc4n3)c2)n1 [Compound 142, 4-(5-(3-(1-methyl-1H-pyrazol-3-yl)phenyl)-2-(pyridin-4-yl)pyrazolo[1,5-a]pyrimidin-7-yl)morpholine] | – | – | 0.01 to 0.1 | 1 to 10 | – |
| Cc1cccc(/C=N/Nc2nc(N3CCOCC3)c3nc(-c4ccncc4)n(C)c3n2)c1 [drawing 329] | Inactive | Active | – | – | – |
| Oc1cc(-c2ccccc2)nn1-c1cc(N2CCOCC2)n2nc(-c3ccncc3)cc2n1 [Compound 51, 1-(7-morpholino-2-(pyridin-4-yl)pyrazolo[1,5-a]pyrimidin-5-yl)-3-phenyl-1H-pyrazol-5-ol] | – | – | < 0.01 | 1 to 10 | – |
| c1ccc(-c2nccc(-c3cc(N4CCOCC4)n4nc(C5CCCO5)cc4n3)n2)cc1 (centres unmarked) [Compound 97, 4-(5-(2-phenylpyrimidin-4-yl)-2-(tetrahydrofuran-2-yl)pyrazolo[1,5-a]pyrimidin-7-yl)morpholine] | – | – | 0.01 to 0.1 | 1 to 10 | – |
| Cc1cccc(-c2ccn(-c3cc(N4CCOCC4)n4nc(-c5ccncc5)cc4n3)n2)c1 [Compound 65, 4-(2-(pyridin-4-yl)-5-(3-(m-tolyl)-1H-pyrazol-1-yl)pyrazolo[1,5-a]pyrimidin-7-yl)morpholine] | – | – | 0.01 to 0.1 | 0.1 to 1 | – |
| COc1nn(-c2cc(N3CCOCC3)n3nc(-c4ccncc4)cc3n2)cc1-c1ccccc1 [Compound 66, 4-(5-(3-methoxy-4-phenyl-1H-pyrazol-1-yl)-2-(pyridin-4-yl)pyrazolo[1,5-a]pyrimidin-7-yl)morpholine] | – | – | > 10 | – | IC50 ([4]; numeric values): > 3 µM |
| CN(C)c1cc(N2CCOCC2)n2nc(-c3ccncc3)cc2n1 | Inactive | Inactive | – | – | – |
